According to publication PMC6689002, “Anthocyanins, delphinidin-3-O-glucoside and cyanidin-3-O-glucoside, inhibit immune checkpoints in human colorectal cancer cells in vitro and in silico” (Scientific Reports, 2019):

How the values were obtained:
[1] = molecular target: T1, programmed death-ligand 1 (PD-L1) (Homo sapiens, UniProt Q9NZQ7); experiment: intrinsic fluorescence quenching (Stern-Volmer, static quenching); type: binding
T1 construct: gene CD274; recombinant human PD-L1 protein

[2] = molecular target: T2, programmed cell death protein 1 (PD-1) (Homo sapiens, UniProt Q15116); experiment: as above; type: binding
T2 construct: gene PDCD1; human PD-1 protein
T2 sequence (Q15116 25-288): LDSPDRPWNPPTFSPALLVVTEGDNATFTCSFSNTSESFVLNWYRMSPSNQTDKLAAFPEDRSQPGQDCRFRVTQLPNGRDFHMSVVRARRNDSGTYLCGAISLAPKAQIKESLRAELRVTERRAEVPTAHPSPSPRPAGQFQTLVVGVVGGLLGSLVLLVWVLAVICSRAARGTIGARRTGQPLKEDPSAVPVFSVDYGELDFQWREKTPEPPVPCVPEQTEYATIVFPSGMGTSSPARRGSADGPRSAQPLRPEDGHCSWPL

T1 sequence (Q9NZQ7 19-290): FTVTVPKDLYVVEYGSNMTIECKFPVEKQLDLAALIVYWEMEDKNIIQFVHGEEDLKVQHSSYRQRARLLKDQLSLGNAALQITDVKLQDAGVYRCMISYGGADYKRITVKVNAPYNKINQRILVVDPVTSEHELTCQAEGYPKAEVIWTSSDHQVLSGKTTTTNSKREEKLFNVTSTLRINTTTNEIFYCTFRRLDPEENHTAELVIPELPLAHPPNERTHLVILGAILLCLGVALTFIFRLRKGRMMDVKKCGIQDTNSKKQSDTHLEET

Row | Compound | intrinsic fluorescence quenching (Stern-Volmer, static quenching) [1] | intrinsic fluorescence quenching (Stern-Volmer, static quenching) [2]
1 | OCC1OC(Oc2cc3c(O)cc(O)cc3[o+]c2-c2cc(O)c(O)c(O)c2)C(O)C(O)C1O (stereo not shown) [D3G, delphinidin-3-O-glucoside] | C3G and D3G showed static quenching with both PD-1 and PD-L1 | C3G and D3G showed static quenching with both PD-1 and PD-L1
2 | OCC1OC(Oc2cc3c(O)cc(O)cc3[o+]c2-c2ccc(O)c(O)c2)C(O)C(O)C1O (stereo not shown) [C3G, cyanidin-3-O-glucoside] | C3G and D3G showed static quenching with both PD-1 and PD-L1 | C3G and D3G showed static quenching with both PD-1 and PD-L1
